This is an account of results in patent publication US10391201B2, “Gene therapy” (Ospedale San Raffaele S.r.l., priority 2014, dated 2019).

Assay [1] deals with monocyte-derived macrophages (MDM). The assay is described as follows: SINLV-GFP lentiviral transduction of monocyte-derived macrophages. The format is cell-based, human. The conditions noted are these: MOI 1, 10 μM CsA or 10 μg/mL rapamycin, FACS 5 days. The method, then:
CD4^+ T cells were activated in RPMI, supplemented with 10% FBS, penicillin (100 IU/mL), streptomycin (100 μg/mL), 2% glutamine, phytohaemagglutanin (PHA) (2 μg/mL, Roche) and IL-2 (300 IU/mL, Novartis) for three days and maintained in RPMI supplemented with 10% FBS, penicillin (100 IU/mL), streptomycin (100 μg/mL), 2% glutamine and IL-2 (300 UI/mL). Monocyte-derived macrophages (MDM) were differentiated from isolated CD14^+ monocytes in DMEM supplemented with 10% FBS, penicillin (100 IU/mL), streptomycin (100 μg/mL), 2% glutamine and 5% human serum AB (Lonza) for seven days.
Human CB and BM-derived haematopoietic stem/progenitor cells (HSPC) were cultured in serum-free StemSpan medium (StemCell Technologies) supplemented with 100 ng/mL recombinant human stem cell factor (rhSCF), 20 ng/mL recombinant human thrombopoietin (rhTPO), 100 ng/mL recombinant human Flt3 ligand (rhFlt3) and 20 ng/mL recombinant human IL6 (rhIL6) (all from Peprotech) 16 to 24 hours prior to transduction. […] After transduction, cells were washed and maintained serum-free StemSpan supplemented with cytokines as above until the reading of GFP-positive (GFP+) cells by FACS. […]
GFP expression in transduced cells was measured 5-7 days post-transduction. […]

Another assay relates to CB-derived CD34+ cells. The assay is described as follows: LV replication intermediates (late-RT, 2LTR circles, integrated copies) in CB-derived CD34+ cells. The format is cell-based, human. The method, then:
CsA and rapamycin act on distinct steps on the LV life cycle. […] The LV genome fate was tracked by measuring late-RT product (A) and 2LTR circles (B) 24 hours after transduction and integrated proviral copies 2 weeks after transduction (C). Data represent the mean±SEM of four independent experiments expressed as fold versus DMSO WT (A,B) or as absolute copies/cell (C). D. IDLV transduction efficiency was measured 3 days after transduction by FACS and by measuring the retrotranscribed LV DNA products by PCR. Data are the mean±SEM of three independent experiments. P values are for one-way with Bonferonni's multiple comparison. *P<0.05, **P<0.01, ****P<0.0001.
CsA and rapamycin act on distinct steps on the LV life cycle. […] The LV genome fate was tracked by measuring late-RT product (A) and 2LTR circles (B) 24 hours after transduction and integrated proviral copies 2 weeks after transduction (C). Data represent the mean±SEM of four independent experiments expressed as fold versus DMSO WT (A,B) or as absolute copies/cell (C). D. IDLV transduction efficiency was measured 3 days after transduction by FACS (left panel) and by measuring the retrotranscribed LV DNA products by PCR (right panel). Data are the mean±SEM of three independent experiments. […]
To analyse viral replication intermediates, transduced cells were washed and resuspended in Monini lysis buffer (0.1% polyoxyethylene 10 lauryl ether (Sigma), 0.1 mg/mL proteinase K (Promega)) (25 μL per 1×10^5 cells), incubated at 65° C. for 2 h and heat inactivated at 94° C. for 15 min (Monini, P. et al. (1999) Blood 93: 4044-58). […] Late-RT and 2LTR circles were measured by semi-quantitative Taqman assay with primers described below and normalised using the human TERT gene. Results are expressed as fold versus the DMSO control, as described above.
DNA from cell cultures was extracted using a Maxwell 16 instrument (Promega) or Blood & Cell Culture DNA Micro Kit (Qiagen). […] Vector copy numbers and replication intermediates were normalised to genomic DNA content, which was assessed using the human TERT gene. […]

Each structure is given as a SMILES string.

As for `CO[C@H]1C[C@@H]2CC[C@@H](C)[C@@](O)(O2)C(=O)C(=O)N2CCCC[C@H]2C(=O)O[C@H]([C@H](C)C[C@@H]2CC[C@@H](O)[C@H](OC)C2)CC(=O)[C@H](C)/C=C(\C)[C@@H](O)[C@@H](OC)C(=O)[C@H](C)C[C@H](C)/C=C/C=C/C=C/1C` [rapamycin, Rapamycin], in assay [1], the “decrease in GFP+ cells (transduction)” value came out at 2.8 fold. Further, the “2-long-terminal-repeat (2LTR) circles vs DMSO” value with CB-derived CD34+ cells (10 μg/ml rapamycin, 24 hours after transduction) is recorded as “consequent increase”. The “late-RT products vs DMSO, independently of the CA” value with CB-derived CD34+ cells (WT, A88T or A92E LV, 10 μg/ml rapamycin, 24 hours after transduction) is on record as “two to threefold increase”. Also, in the assay on CB-derived CD34+ cells (all vectors, 2 weeks after transduction), the “integrated vector (proviral) copies vs DMSO” value is given as “increase”.
